Experimental data taken from patent US12030877B2, “Prostaglandin E synthase inhibitors and methods for utilizing the same” (University of Kentucky Research Foundation, priority 2016, dated 2024).
Like-named read-outs stand apart in the source and are kept apart here.

Experiments:
mPGES-1 Mouse enzyme = target: T1, mPGES-1 Mouse enzyme (Mus musculus, UniProt Q9JM51); assay: mPGES-1 enzyme activity assay (PGE2 enzyme immunoassay), mouse enzyme; format: biochemical; settings: for IC50: recombinant microsomal enzyme, means ± SD, triplicate; for inhibition at 10 µM: compound at a concentration of 10 μM, read-out: % inhibition of the compound against mPGES-1, Mouse enzyme
T1 construct: made in house; host or cells: FreeStyle 293-F cells, crude microsomal preparation
T1 sequence (Q9JM51 1-153): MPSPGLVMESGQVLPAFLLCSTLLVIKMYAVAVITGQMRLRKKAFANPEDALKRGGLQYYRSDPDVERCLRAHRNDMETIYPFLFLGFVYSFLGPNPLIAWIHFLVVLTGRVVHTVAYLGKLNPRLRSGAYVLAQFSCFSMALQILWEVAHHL
Procedure: (§1) Studies were conducted to characterize the inhibitory activity against recombinant mPGES-1 of the compounds synthesized in accordance with Examples 1-4, and disclosed herein.
(§2) Briefly, FreeStyle 293-F cells were cultured following manufacturer's manual in FreeStyle 293 expression medium on orbit rotate shaker in 8% CO2 incubator at 37° C. Cells were transfected with 1.5 μg/mL of mPGES-1/pcDNA3 construct using FreeStyle Max reagent at a cell density of 1×10^6 for 2 days. Transfected cells were collected, washed, and sonicated in TSES buffer (15 mM Tris-HCl, pH 8.0 plus 0.25 M sucrose, 0.1 mM EDTA and 1 mM DTT) on ice. The broken cells were first centrifuged at 12,500×g for 10 min. The supernatant was further centrifuged at 105,000×g for 1 hr at 4° C. The pellet was washed and homogenized in PBS buffer. The crude microsomal mPGES-1 preparation was aliquoted and stored at −80° C. The crude protein concentration was 8 mg/mL.
(§3) The enzyme activity assays were performed on ice in 1.5 ml microfuge tubes by using the expressed mPGES-1. The reaction mixture contained: 0.2 M Na2HPO4/NaH2PO4, pH 7.2, 10 μL; 0.1 M GSH, 2.5 μL; diluted microsomal enzyme (80 μg/mL), 1 μL; PGH2 (0.31 mM in DMF), 5 μL; 1 μL inhibitor; and H2O in a final reaction volume of 100 μL. PGH2 was stored in dry ice and used to initiate the reaction.
(§4) Compounds were incubated with the enzyme for 15 min at room temperature before the addition of cold PGH2 (1 μM final) to initiate the enzyme reaction. After 30 s, 10 μL of SnCl2 (40 mg/mL) in ethanol was added to stop the reaction. The nonenzymatic conversion of PGH2 to PGE2 was performed in the same buffer devoid of enzyme. The reaction mixture was placed on ice until PGE2 production was determined by the PGE2 enzyme immunoassay as described earlier. IC50 values of the inhibitors were calculated by using the GraphPad Prism 4.0 program. The results are set forth in the tables provided in Examples 7-10.

mPGES-1 = target: T2, mPGES-1 (Homo sapiens, UniProt O14684); assay: mPGES-1 enzyme activity assay (PGE2 enzyme immunoassay), human enzyme; format: biochemical; design: made in house; host or cells: FreeStyle 293-F cells, crude microsomal preparation; settings: recombinant microsomal enzyme, means ± SD, triplicate
T2 sequence (O14684 1-152): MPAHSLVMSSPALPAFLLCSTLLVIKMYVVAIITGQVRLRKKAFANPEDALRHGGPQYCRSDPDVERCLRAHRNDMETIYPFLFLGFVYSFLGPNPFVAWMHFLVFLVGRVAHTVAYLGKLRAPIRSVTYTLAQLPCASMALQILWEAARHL
Procedure: as §1, §2, §3, §4

[1] = IC50 against mPGES-1, Mouse enzyme
[2] = read-out: IC50 against mPGES-1, Human enzyme
[3] = read-out: IC50 against mPGES-1, Mouse enzyme
[4] = IC50 against mPGES-1, Human enzyme

| Compound | IC50 (mPGES-1 Mouse enzyme; [1]) [nM] | IC50 (mPGES-1; [2]) [nM] | IC50 (mPGES-1 Mouse enzyme; [3]) [nM] | inhibition at 10 µM (mPGES-1 Mouse enzyme) [%] | IC50 (mPGES-1; [4]) [nM] |
| --- | --- | --- | --- | --- | --- |
| O=C1NC(=O)C(=Cc2ccc(OCCCCC3CCCCC3)cc2)C(=O)N1 [Compound I-01] | 7080 ± 627 | 622 ± 121 | – | – | – |
| O=C1NC(=O)C(=Cc2ccc(OCCCCC3CCCCC3)c(Cl)c2)C(=O)N1 [Compound I-02] | – | 33 ± 3 | 157 ± 31 | – | – |
| Cc1cc(C=C2C(=O)NC(=O)NC2=O)ccc1OCCCCC1CCCCC1 [Compound I-04] | – | – | – | 25 | 82 ± 10 |
| O=C1NC(=O)C(=Cc2ccc(OCCCCC3CCCCC3)c(O)c2)C(=O)N1 [Compound I-05] | 2900 ± 293 | – | – | – | 116 ± 17 |
| COc1cc(C=C2C(=O)NC(=O)NC2=O)ccc1OCCCCC1CCCCC1 [Compound I-06] | 1460 ± 209 | – | – | – | 121 ± 20 |
| CCOc1cc(C=C2C(=O)NC(=O)NC2=O)ccc1OCCCCC1CCCCC1 [Compound I-07] | 2410 ± 339 | – | – | – | 186 ± 26 |
| COc1cc(C=C2C(=O)NC(=O)NC2=O)cc(Cl)c1OCCCCC1CCCCC1 [Compound I-09] | 360 ± 56 | – | – | – | 22 ± 7 |
| COc1cc(C=C2C(=O)NC(=O)NC2=O)cc(Br)c1OCCCCC1CCCCC1 [Compound I-10] | 292 ± 47 | – | – | – | 69 ± 16 |
| COc1cc(C=C2C(=O)NC(=O)NC2=O)cc(I)c1OCCCCC1CCCCC1 [Compound I-11] | 359 ± 50 | – | – | – | 54 ± 12 |
| COc1ccc(C=C2C(=O)NC(=O)NC2=O)cc1OCCCCC1CCCCC1 [Compound I-12] | 727 ± 109 | – | – | – | 152 ± 53 |
| O=C1NC(=O)C(=Cc2cc(Cl)ccc2OCCCCC2CCCCC2)C(=O)N1 [Compound I-13] | – | 87 ± 27 | – | 28 | – |
| O=C1NC(=O)C(=Cc2cc(Br)ccc2OCCCCC2CCCCC2)C(=O)N1 [Compound I-14] | – | – | – | 38 | 96 ± 14 |
| O=C1NC(=O)C(=Cc2cc(I)ccc2OCCCCC2CCCCC2)C(=O)N1 [Compound I-15] | 12100 ± 1960 | – | – | – | 135 ± 18 |
| O=C1NC(=O)C(=Cc2c(OCCCCC3CCCCC3)ccc3ccccc23)C(=O)N1 [Compound I-16] | 7040 ± 1850 | – | – | – | 154 ± 18 |
| O=C1NC(=O)C(=Cc2ccc(OCCCCC3CCCCC3)c3ccccc23)C(=O)N1 [Compound I-17] | 3700 ± 562 | – | – | – | 171 ± 34 |
| CN1C(=O)C(=Cc2ccc(OCCCCC3CCCCC3)c(Cl)c2)C(=O)N(C)C1=O [Compound I-18] | – | – | – | 8 | 272 ± 30 |
| CN1C(=O)C(=Cc2ccc(OCCCCC3CCCCC3)c(Br)c2)C(=O)N(C)C1=O [Compound I-19] | – | – | – | 24 | 427 ± 55 |
| CN1C(=O)C(=Cc2ccc(OCCCCC3CCCCC3)c([N+](=O)[O-])c2)C(=O)N(C)C1=O [Compound I-20] | – | – | – | 15 | 561 ± 55 |
| O=C1NC(=O)C(=Cc2ccc(OCCCCC3CCCCC3)c(Cl)c2)C(=O)N1 [Compound I-21] | 415 ± 120 | – | – | – | 28 ± 3 |
| O=C1NC(=O)C(=Cc2ccc(OCCCC3CCCCC3)c([N+](=O)[O-])c2)C(=O)N1 [Compound I-26] | 373 ± 51 | – | – | – | 156 ± 30 |
| CN1C(=O)C(=Cc2ccc(OCCCC3CCCCC3)c(Cl)c2)C(=O)N(C)C1=O [Compound I-27] | – | – | – | 29 | 240 ± 20 |
| CN1C(=O)C(=Cc2ccc(OCCCC3CCCCC3)c(Br)c2)C(=O)N(C)C1=O [Compound I-28] | – | – | – | 30 | 127 ± 14 |
| CN1C(=O)C(=Cc2ccc(OCCCC3CCCCC3)c([N+](=O)[O-])c2)C(=O)N(C)C1=O [Compound I-29] | – | – | – | 41 | 188 ± 21 |
| O=C1NC(=O)C(=Cc2ccc(OCCCC3CCCCC3)c([N+](=O)[O-])c2)C(=O)N1 [Compound I-32] | 428 ± 58 | – | – | – | 73 ± 12 |
| O=C1NC(=O)C(=Cc2ccc(OCCCCc3ccccc3)c(Cl)c2)C(=O)N1 [Compound I-33] | 2790 ± 525 | – | – | – | 73 ± 10 |

| Compound | IC50 (mPGES-1 Mouse enzyme; [1]) [nM] | IC50 (mPGES-1; [2]) [nM] | IC50 (mPGES-1 Mouse enzyme; [3]) [nM] | inhibition at 10 µM (mPGES-1 Mouse enzyme) [%] | IC50 (mPGES-1; [4]) [nM] |
| --- | --- | --- | --- | --- | --- |
| O=C1NC(=O)C(=Cc2ccc(OCCCOc3ccccc3)c(Cl)c2)C(=O)N1 [Compound I-34] | 8130 ± 1010 | – | – | – | 349 ± 40 |
| O=C1NC(=O)C(=Cc2ccc(OCCCOc3ccc(-c4ccccc4)cc3)c(Cl)c2)C(=O)N1 [Compound I-35] | – | – | – | 17 | 337 ± 34 |
| O=C1NC(=O)C(=Cc2ccc(OCCCOc3ccc4ccccc4c3)c(Cl)c2)C(=O)N1 [Compound I-36] | – | – | – | 19 | 365 ± 59 |
| O=C1NC(=O)C(=Cc2ccc(OCCC3CCCCC3)c([N+](=O)[O-])c2)C(=O)N1 [Compound I-37] | 2390 ± 425 | – | – | – | 517 ± 68 |
| O=C1NC(=O)C(=Cc2ccc(OCC3CCCCC3)c([N+](=O)[O-])c2)C(=O)N1 [Compound I-38] | – | – | – | 42 | 1110 ± 104 |
| CCCCCOc1ccc(C=C2C(=O)NC(=O)NC2=O)cc1[N+](=O)[O-] [Compound I-39] | 6310 ± 1140 | – | – | – | 460 ± 64 |
| CCCCCCCOc1ccc(C=C2C(=O)NC(=O)NC2=O)cc1[N+](=O)[O-] [Compound I-40] | 734 ± 119 | – | – | – | 232 ± 54 |
| CCCCCCCCCOc1ccc(C=C2C(=O)NC(=O)NC2=O)cc1[N+](=O)[O-] [Compound I-41] | 1300 ± 163 | – | – | – | 188 ± 43 |
| O=C1NC(=O)C(Cc2ccc(OCCCCC3CCCCC3)c(Cl)c2)C(=O)N1 [Compound I-42] | 1330 ± 151 | – | – | – | 133 ± 20 |
| O=C1NC(=O)C(Cc2ccc(OCCCCC3CCCCC3)c(Br)c2)C(=O)N1 [Compound I-43] | 1090 ± 211 | – | – | – | 97 ± 13 |
| O=C1NC(=O)C(Cc2ccc(OCCCCC3CCCCC3)c([N+](=O)[O-])c2)C(=O)N1 [Compound I-44] | 3350 ± 560 | – | – | – | 136 ± 23 |
| CCCCCCOc1ccc(C=C(C#N)C#N)cc1[N+](=O)[O-] [Compound V-04] | – | 285 ± 40 | 754 ± 73 | – | – |
| CCCCCCCOc1ccc(C=C(C#N)C#N)cc1[N+](=O)[O-] [Compound V-05] | – | 135 ± 16 | 776 ± 217 | – | – |
| CCCCCCCCOc1ccc(C=C(C#N)C#N)cc1[N+](=O)[O-] [Compound V-06] | – | 89 ± 12 | 716 ± 120 | – | – |
| CCCCCCCOc1ccc(C=C(C#N)C#N)cc1 [Compound V-10] | – | 136 ± 13 | 1390 ± 255 | – | – |
| CCCCCCOc1c(Br)cc(C=C(C#N)C#N)cc1OC [Compound V-13] | – | 181 ± 33 | 1630 ± 250 | – | – |
| CCCCCCCOc1c(Br)cc(C=C(C#N)C#N)cc1OC [Compound V-15] | – | 83 ± 14 | 357 ± 52 | – | – |
| CCCCCCCCOc1c(Br)cc(C=C(C#N)C#N)cc1OC [Compound V-18] | – | 74 ± 8 | 572 ± 83 | – | – |
| CCCCCCCCCCCCCCCCCCOc1c(Br)cc(C=C(C#N)C#N)cc1OC [Compound V-20] | – | 50 ± 9 | 270 ± 64 | – | – |
| CCCCOc1ccc(C=C(C#N)C#N)cc1OC [Compound V-22] | – | 348 ± 100 | 1770 ± 241 | – | – |
| CCCCCCCCCCOc1ccc(/C=C(\C#N)C(=O)O)cc1OC [Compound V-27] | – | 51 ± 10 | 390 ± 84 | – | – |
| CCCCCCCOc1ccc(C=C(C#N)C#N)cc1OC [Compound V-35] | – | 256 ± 33 | 7290 ± 2550 | – | – |
| O=C(O)CN1C(=O)S/C(=C2\C(=O)N(Cc3ccccc3)c3ccccc32)C1=O [II-01] | – | 817 ± 79 | – | 10 | – |
| O=C(O)CN1C(=O)S/C(=C2\C(=O)N(Cc3ccc(Cl)cc3)c3ccccc32)C1=O [II-02] | – | 614 ± 63 | – | 45 | – |
| O=C(O)CN1C(=O)S/C(=C2\C(=O)N(CCc3ccccc3)c3ccccc32)C1=O [II-03] | – | 348 ± 44 | – | 62 | – |
